Source: ChEMBL document CHEMBL1201862, “PubChem BioAssay data set” (2004)
Activity calls are given as the source filed them.

Columns and labels:
[1] = target: Bcl-2-like protein 10 (Homo sapiens, UniProt Q9HD36); test: Bcl-B/TR3 peptide binding disruption – biochemical, fluorescence polarization, FITC-TR3 peptide, selectivity assay for Bfl-1 inhibitor project, primary screen (AID 748);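 note: fluorescence polarization from a fluorescein-labelled TR3 peptide binding purified Bcl-B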
[2] = target: Heat shock protein HSP 90-alpha (Homo sapiens, UniProt P07900); type: functional, organism-based
[3] = target: Melanocortin receptor 4 (Homo sapiens, UniProt P32245); test: inhibitors of MC4R cAMP signaling – cell-based, TR-FRET, biased antagonists, dose response (AID 602298); type: functional;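 note: antagonist potency against agonist-stimulated cAMP production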
Chain of Melanocortin receptor 4 (P32245 whole entry): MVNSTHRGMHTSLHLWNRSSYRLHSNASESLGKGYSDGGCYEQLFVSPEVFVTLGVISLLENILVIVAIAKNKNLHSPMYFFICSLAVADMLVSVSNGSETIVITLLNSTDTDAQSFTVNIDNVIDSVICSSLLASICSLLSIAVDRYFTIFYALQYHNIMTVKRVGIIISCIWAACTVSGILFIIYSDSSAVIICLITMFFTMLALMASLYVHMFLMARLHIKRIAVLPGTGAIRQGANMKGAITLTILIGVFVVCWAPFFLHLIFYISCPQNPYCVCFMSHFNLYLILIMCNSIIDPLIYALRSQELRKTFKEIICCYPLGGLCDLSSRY

[4] = target: Neurotensin receptor type 1 (Homo sapiens, UniProt P30989); type: functional;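 note: Image-based confirmatory dose-response assay measuring agonist activity at NTR1; NTR1-expressing U2OS osteosarcoma cells imaged for beta-arrestin GFP spot formation; agonist potency where compounds increase beta-arrestin recruitment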
Chain of Neurotensin receptor type 1 (P30989 whole entry): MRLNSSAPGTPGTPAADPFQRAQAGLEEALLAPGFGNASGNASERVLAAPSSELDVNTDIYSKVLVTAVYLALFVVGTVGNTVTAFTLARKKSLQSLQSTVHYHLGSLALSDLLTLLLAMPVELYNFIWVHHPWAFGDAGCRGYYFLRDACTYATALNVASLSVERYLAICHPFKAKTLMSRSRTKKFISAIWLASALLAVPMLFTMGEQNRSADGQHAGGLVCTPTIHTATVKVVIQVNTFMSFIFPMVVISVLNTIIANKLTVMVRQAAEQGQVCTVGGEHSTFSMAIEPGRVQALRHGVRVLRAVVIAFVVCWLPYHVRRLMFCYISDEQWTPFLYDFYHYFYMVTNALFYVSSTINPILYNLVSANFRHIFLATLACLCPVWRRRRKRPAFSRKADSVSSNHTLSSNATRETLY

[5] = target: T1, Microphthalmia-associated transcription factor (Homo sapiens, UniProt O75030); test: reducers of TRPM1 reporter luminescence, concentration series – cell-based, SK-MEL-5, cherry-picked, set 3, MITF inhibitor project, dose response (AID 493073); type: functional;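 note: SK-MEL-5 melanoma cells with luciferase driven by the MITF target TRPM1 promoter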
T1 sequence (O75030 whole entry): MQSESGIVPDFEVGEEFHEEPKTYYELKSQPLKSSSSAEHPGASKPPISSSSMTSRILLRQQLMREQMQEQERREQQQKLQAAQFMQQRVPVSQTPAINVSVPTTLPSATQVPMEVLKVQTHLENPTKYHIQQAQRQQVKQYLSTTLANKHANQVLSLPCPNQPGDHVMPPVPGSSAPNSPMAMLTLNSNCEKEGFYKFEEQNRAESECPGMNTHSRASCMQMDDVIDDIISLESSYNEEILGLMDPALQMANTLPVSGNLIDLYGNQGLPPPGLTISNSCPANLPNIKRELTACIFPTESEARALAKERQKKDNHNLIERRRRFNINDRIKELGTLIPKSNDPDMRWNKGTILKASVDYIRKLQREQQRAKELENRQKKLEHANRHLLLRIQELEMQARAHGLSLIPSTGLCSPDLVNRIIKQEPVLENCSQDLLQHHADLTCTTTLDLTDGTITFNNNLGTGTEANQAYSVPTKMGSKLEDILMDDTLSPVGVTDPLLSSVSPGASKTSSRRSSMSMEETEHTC

[6] = cAMP pathway inhibition in counterscreen cell line – TR-FRET cAMP detection, counter-screen for MC4R biased antagonist project, dose response (AID 602305); type: functional, cell-based;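 note: U2OS cells stimulated with forskolin near its EC80 as the cAMP inducer; potency is for inhibition of forskolin-stimulated cAMP signaling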
[7] = target: T2, Rac GTPase-activating protein 1 (Homo sapiens, UniProt Q9H0H5); test: blockers of MgcRacGAP-driven Rac1 GTP hydrolysis – biochemical, ADP Hunter fluorescence, primary and confirmatory, confirmation (AID 624330); type: functional
T2 sequence (Q9H0H5 whole entry): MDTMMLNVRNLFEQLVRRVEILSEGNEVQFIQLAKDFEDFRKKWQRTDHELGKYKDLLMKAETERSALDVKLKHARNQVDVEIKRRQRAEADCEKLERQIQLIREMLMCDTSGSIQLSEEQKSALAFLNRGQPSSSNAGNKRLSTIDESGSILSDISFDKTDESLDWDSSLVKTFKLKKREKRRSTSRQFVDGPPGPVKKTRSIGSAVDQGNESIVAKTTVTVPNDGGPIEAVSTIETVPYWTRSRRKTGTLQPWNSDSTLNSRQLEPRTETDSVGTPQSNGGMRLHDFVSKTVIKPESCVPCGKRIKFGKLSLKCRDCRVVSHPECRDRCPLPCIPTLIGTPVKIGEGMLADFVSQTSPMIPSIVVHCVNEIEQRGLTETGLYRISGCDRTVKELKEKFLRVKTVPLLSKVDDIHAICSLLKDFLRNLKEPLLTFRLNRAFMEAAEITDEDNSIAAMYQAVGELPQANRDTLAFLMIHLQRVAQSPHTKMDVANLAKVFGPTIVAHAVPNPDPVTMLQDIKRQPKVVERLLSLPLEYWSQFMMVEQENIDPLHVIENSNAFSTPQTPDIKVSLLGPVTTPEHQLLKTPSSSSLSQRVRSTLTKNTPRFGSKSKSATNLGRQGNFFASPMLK

[8] = Luminescence Cell-Based Dose Retest to Confirm Inhibitors of Cancer Stem Cells. [Related pubchem assays (depositor defined):AID2717, AID2721]; type: functional; details: Homo sapiens
[9] = target: T3, Short transient receptor potential channel 4 (Mus musculus, UniProt Q9QUQ5); test: block of DAMGO-driven TRPC4 calcium entry – cell-based, HEK293 TRPC4/mu-opioid, Fluo-4 calcium, dose response (AID 434942); type: functional;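 note: potency of inhibitors blocking the TRPC4 calcium response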
T3 sequence (Q9QUQ5 whole entry): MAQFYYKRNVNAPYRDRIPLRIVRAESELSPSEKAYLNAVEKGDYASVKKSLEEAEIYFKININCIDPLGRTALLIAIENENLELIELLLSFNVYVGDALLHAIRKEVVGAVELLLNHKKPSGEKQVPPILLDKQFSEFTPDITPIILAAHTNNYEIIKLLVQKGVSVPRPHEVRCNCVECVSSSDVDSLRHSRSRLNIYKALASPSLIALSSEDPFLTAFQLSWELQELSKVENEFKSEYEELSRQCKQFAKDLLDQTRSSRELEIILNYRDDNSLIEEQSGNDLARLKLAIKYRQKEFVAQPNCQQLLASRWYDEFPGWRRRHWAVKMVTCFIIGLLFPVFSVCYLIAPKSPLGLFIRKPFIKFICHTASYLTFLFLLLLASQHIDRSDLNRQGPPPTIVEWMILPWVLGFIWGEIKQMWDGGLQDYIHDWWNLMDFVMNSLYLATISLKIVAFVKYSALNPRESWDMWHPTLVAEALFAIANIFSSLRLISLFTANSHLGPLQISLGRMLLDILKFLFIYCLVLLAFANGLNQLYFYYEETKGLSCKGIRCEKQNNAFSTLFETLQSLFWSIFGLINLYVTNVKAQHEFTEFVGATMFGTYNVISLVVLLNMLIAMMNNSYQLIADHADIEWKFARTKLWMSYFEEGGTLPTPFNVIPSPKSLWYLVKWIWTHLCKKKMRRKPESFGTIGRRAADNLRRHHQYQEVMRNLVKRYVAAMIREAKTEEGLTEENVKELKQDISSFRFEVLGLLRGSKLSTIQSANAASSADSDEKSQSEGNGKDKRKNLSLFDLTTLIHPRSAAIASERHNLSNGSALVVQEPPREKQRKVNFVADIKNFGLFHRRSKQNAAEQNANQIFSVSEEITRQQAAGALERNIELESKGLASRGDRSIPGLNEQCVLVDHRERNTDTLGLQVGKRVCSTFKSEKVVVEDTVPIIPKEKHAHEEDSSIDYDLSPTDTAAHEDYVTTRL

Chain of Bcl-2-like protein 10 (Q9HD36 whole entry): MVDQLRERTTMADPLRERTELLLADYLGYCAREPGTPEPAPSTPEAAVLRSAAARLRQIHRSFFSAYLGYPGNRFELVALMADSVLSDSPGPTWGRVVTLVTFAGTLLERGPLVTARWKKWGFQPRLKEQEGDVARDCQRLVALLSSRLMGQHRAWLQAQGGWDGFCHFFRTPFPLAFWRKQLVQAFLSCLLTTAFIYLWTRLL

Compound: O=C1c2ccccc2C(=O)N1CC#CCN1CCN(C2CCCCC2)CC1
- IC50 [1]: > 100 µM (inactive)

Compound: CN(C)c1ccc(-n2cccc2/C=C/[N+](=O)[O-])cc1
- AC50 [2]: 4.36 µM (active)
- IC50 [3]: 12.1 µM (inactive)
- EC50 [4]: 9.06 µM (active)
- AC50 [5]: 10.2 µM (active)
- IC50 [6]: > 64.6 µM (inactive)
- IC50 [7]: 43.2 µM (active)
- AC50 [8]: 2.93 µM (active)

Compound: Cc1ccc(S(=O)(=O)Nc2cccc(C(=O)NCC(c3ccco3)N3CCCCC3)c2)cc1F (centres undefined)
- EC50 [9]: 0.267 µM (active)
